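How tested: cells in 96-well plates exposed to compound for 48 hours at five concentrations. GI50 = concentration required for 50% inhibition of growth.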 Activity calls are given as the source filed them. No stated cut-off is given here; in the data, active = GI50 up to about 1.1 µM and inactive = higher.
Tests used:
Assay in all cases: DTP human tumour cell line panel, 48 h
OVCAR-3 = system: OVCAR-3
PC-3 = system: PC-3
HCC 2998 = system: HCC 2998
U-251 = system: U-251
UACC-257 = system: UACC-257
NCI-H522 = system: NCI-H522
IGROV-1 = system: IGROV-1
OVCAR-5 = system: OVCAR-5
MDA-MB-231 = system: MDA-MB-231
786-0 = system: 786-0
Hs-578T = system: Hs-578T
SF-295 = system: SF-295
MCF7 = system: MCF7
SNB-19 = system: SNB-19
DU-145 = system: DU-145
SK-MEL-2 = system: SK-MEL-2
HT-29 = system: HT-29
A549 = system: A549
CCRF-CEM = system: CCRF-CEM
Malme-3M = system: Malme-3M

Compound | GI50 (OVCAR-3) | GI50 (PC-3) | GI50 (HCC 2998) | GI50 (U-251) | GI50 (UACC-257) | GI50 (NCI-H522) | GI50 (IGROV-1) | GI50 (OVCAR-5) | GI50 (MDA-MB-231) | GI50 (786-0) | GI50 (Hs-578T) | GI50 (SF-295) | GI50 (MCF7) | GI50 (SNB-19) | GI50 (DU-145) | GI50 (SK-MEL-2) | GI50 (HT-29) | GI50 (A549) | GI50 (CCRF-CEM) | GI50 (Malme-3M)
Cc1cc(C(C)(C)C)cc(CNC2CCCCC2)c1O | 15.6 µM (inactive) | 16.5 µM (inactive) | 3 µM (inactive) | 16.3 µM (inactive) | 14.9 µM (inactive) | 12.6 µM (inactive) | 13.8 µM (inactive) | 16.2 µM (inactive) | 18 µM (inactive) | 16.2 µM (inactive) | 20.2 µM (inactive) | 16 µM (inactive) | 18.1 µM (inactive) | 16.6 µM (inactive) | 21.3 µM (inactive) | 17.7 µM (inactive) | 17.3 µM (inactive) | 18.4 µM (inactive) | 17.9 µM (inactive) | 14.3 µM (inactive)
CCN(CC(=O)O)CC(=O)O | > 100 µM (inactive) | > 100 µM (inactive) | > 100 µM (inactive) | > 100 µM (inactive) | > 100 µM (inactive) | > 100 µM (inactive) | > 100 µM (inactive) | > 100 µM (inactive) | > 100 µM (inactive) | > 100 µM (inactive) | > 100 µM (inactive) | > 100 µM (inactive) | > 100 µM (inactive) | > 100 µM (inactive) | > 100 µM (inactive) | > 100 µM (inactive) | > 100 µM (inactive) | > 100 µM (inactive) | > 100 µM (inactive) | > 100 µM (inactive)
O=C(c1ccc(Cl)cc1)N(Cc1cccnc1)C(=S)N(Cc1cccnc1)C(=O)c1ccc(Cl)cc1 | 34 µM (inactive) | 30.3 µM (inactive) | 25.9 µM (inactive) | 22.7 µM (inactive) | 33.6 µM (inactive) | 24.2 µM (inactive) | – | 36.7 µM (inactive) | 26.5 µM (inactive) | 21.1 µM (inactive) | 48.4 µM (inactive) | 43.3 µM (inactive) | 29.7 µM (inactive) | 41.5 µM (inactive) | 31.1 µM (inactive) | 23 µM (inactive) | 26.1 µM (inactive) | 99.5 µM (inactive) | 50 µM (inactive) | 51.2 µM (inactive)
CCCCCCCCCCCCCCCCSS(C)(=O)=O | 10.9 µM (inactive) | > 100 µM (inactive) | > 53.6 µM (inactive) | 55 µM (inactive) | 42.2 µM (inactive) | 4.48 µM (inactive) | 32.4 µM (inactive) | > 91 µM (inactive) | > 100 µM (inactive) | 7.06 µM (inactive) | > 100 µM (inactive) | > 100 µM (inactive) | 27.6 µM (inactive) | > 100 µM (inactive) | > 100 µM (inactive) | 5.81 µM (inactive) | 25.2 µM (inactive) | > 65.3 µM (inactive) | 3.03 µM (inactive) | 7.45 µM (inactive)
CCOc1nc2c(N3CCCC3)nc(N3CCNCC3)nc2nc1NCc1ccccc1 | 0.887 µM (active) | 1.46 µM (inactive) | 1.34 µM (inactive) | 1.17 µM (inactive) | 1.74 µM (inactive) | 0.82 µM (active) | 1.19 µM (inactive) | 4.14 µM (inactive) | 1.45 µM (inactive) | 1.39 µM (inactive) | 1.72 µM (inactive) | 1.76 µM (inactive) | 1.53 µM (inactive) | 1.51 µM (inactive) | 0.944 µM (active) | 1.66 µM (inactive) | 0.83 µM (active) | 1.74 µM (inactive) | 1.26 µM (inactive) | 1.89 µM (inactive)
FC(F)(F)c1ccc2c(-c3cc[nH]c3)ccnc2c1 | 27.4 µM (inactive) | 36.6 µM (inactive) | > 100 µM (inactive) | 44.3 µM (inactive) | 31.4 µM (inactive) | 32.4 µM (inactive) | 39.5 µM (inactive) | 44.9 µM (inactive) | 40.1 µM (inactive) | 17.7 µM (inactive) | 23.9 µM (inactive) | 30 µM (inactive) | 30.8 µM (inactive) | 17.5 µM (inactive) | 32.5 µM (inactive) | > 100 µM (inactive) | 21.4 µM (inactive) | 26 µM (inactive) | 32.6 µM (inactive) | 24.5 µM (inactive)
O=C1CCCCCCCCCCC1CN(Cc1ccccc1)Cc1ccccc1 (stereo unspecified) | 44.5 µM (inactive) | 30.9 µM (inactive) | 28.8 µM (inactive) | 18.8 µM (inactive) | 32.2 µM (inactive) | 41.3 µM (inactive) | > 100 µM (inactive) | > 100 µM (inactive) | 77.6 µM (inactive) | 42.6 µM (inactive) | 22.4 µM (inactive) | 32.6 µM (inactive) | 23.7 µM (inactive) | 34.9 µM (inactive) | 59 µM (inactive) | – | – | 40.7 µM (inactive) | 19.9 µM (inactive) | 29.4 µM (inactive)
Cc1ccc(S(=O)(=O)N2c3ccccc3[C@H]3CCC=C[C@H]32)cc1 | 4 µM (inactive) | 11.2 µM (inactive) | 8.11 µM (inactive) | 4.78 µM (inactive) | 10.1 µM (inactive) | 1.29 µM (inactive) | 10.6 µM (inactive) | 41.3 µM (inactive) | 49.2 µM (inactive) | 13.2 µM (inactive) | 15.4 µM (inactive) | 3.91 µM (inactive) | 3.81 µM (inactive) | 25.6 µM (inactive) | 20.3 µM (inactive) | 4.58 µM (inactive) | 3.45 µM (inactive) | 6.75 µM (inactive) | 6.9 µM (inactive) | 4.07 µM (inactive)
CCCC1C(C#N)(C#N)C(C#N)=C(N)C1(C)C(C)=O (stereo unspecified) | – | > 100 µM (inactive) | > 100 µM (inactive) | > 100 µM (inactive) | 86.9 µM (inactive) | 52.8 µM (inactive) | > 100 µM (inactive) | > 100 µM (inactive) | > 100 µM (inactive) | 53.3 µM (inactive) | > 100 µM (inactive) | > 100 µM (inactive) | > 100 µM (inactive) | > 100 µM (inactive) | > 100 µM (inactive) | > 100 µM (inactive) | > 100 µM (inactive) | > 100 µM (inactive) | > 100 µM (inactive) | 77.1 µM (inactive)
O=C1C2=C(CC3=C(C2)CS(=O)(=O)C3)C(=O)C2=C1CC1=C(C2)CS(=O)(=O)C1 | 3.35 µM (inactive) | 10.8 µM (inactive) | 20.6 µM (inactive) | 13.5 µM (inactive) | 29 µM (inactive) | 11.3 µM (inactive) | 15.4 µM (inactive) | 43.4 µM (inactive) | 9.59 µM (inactive) | 25.9 µM (inactive) | > 32.4 µM (inactive) | 26.7 µM (inactive) | 13.2 µM (inactive) | 17.7 µM (inactive) | 48.2 µM (inactive) | 32.4 µM (inactive) | 8.59 µM (inactive) | > 90.2 µM (inactive) | 12.8 µM (inactive) | 5.42 µM (inactive)
